Assay results as given in PMC11104609, “Discovery of allosteric regulators with clinical potential to stabilize alpha-L-iduronidase in mucopolysaccharidosis type I” (PLOS ONE, 2024).

How the values were obtained:
rhIDUA (Aldurazyme) = target: T1, rhIDUA (Aldurazyme) (Homo sapiens, UniProt P35475); test: IDUA assay in plasma of mice co-administered rhIDUA and GT-01803; format: in vivo, male C57BL/6 mice; settings: GT-01803 5, 10, 20 mg/kg i.v. + rhIDUA 1.2 mg/kg i.v.; 0.5, 1, 2 h; dose-dependent, significant at 20 mg/kg
T1 sequence (P35475 28-653): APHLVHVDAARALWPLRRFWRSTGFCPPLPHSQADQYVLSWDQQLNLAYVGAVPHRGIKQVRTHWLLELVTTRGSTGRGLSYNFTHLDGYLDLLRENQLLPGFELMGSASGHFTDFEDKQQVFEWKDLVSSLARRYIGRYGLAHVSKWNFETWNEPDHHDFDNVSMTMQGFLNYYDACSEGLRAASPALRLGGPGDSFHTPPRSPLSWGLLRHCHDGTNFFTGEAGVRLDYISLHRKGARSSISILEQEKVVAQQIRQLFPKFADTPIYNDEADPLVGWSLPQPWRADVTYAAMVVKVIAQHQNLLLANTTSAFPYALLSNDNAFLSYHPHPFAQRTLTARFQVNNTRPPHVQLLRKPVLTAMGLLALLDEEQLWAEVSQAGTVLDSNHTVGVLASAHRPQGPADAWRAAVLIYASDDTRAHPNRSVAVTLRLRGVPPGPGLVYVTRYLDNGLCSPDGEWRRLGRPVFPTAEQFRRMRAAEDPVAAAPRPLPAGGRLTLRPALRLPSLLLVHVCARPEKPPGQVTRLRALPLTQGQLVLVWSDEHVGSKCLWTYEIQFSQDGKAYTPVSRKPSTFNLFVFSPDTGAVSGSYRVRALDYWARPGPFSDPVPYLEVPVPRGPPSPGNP
Method: Mice studies were performed by Sai Life Sciences (Pune, India). All procedures of the present study were in accordance with the guidelines provided by the Committee for the Purpose of Control and Supervision of Experiments on Animals (CPCSEA) as published in The Gazette of India, December 15, 1998. In addition, prior approval from the Institutional Animal Ethics Committee (IAEC) was obtained before the initiation of the study. Healthy male C57BL/6 mice (8–10 weeks old) weighing between 22 and 25 g were procured (Global, Pune, India). Three to five mice were housed in each cage. Temperature and humidity were maintained at 22 ± 2 °C and 41–63%, respectively, and illumination was controlled to give a sequence of a 12 h light and 12 h dark cycle. In the study’s in-life phase, we provided all mice with cage enrichment to minimize anxiety. We conducted bone marrow sampling under isoflurane anesthesia, maintaining it throughout the entire procedure. […] All procedures were carried out according to our in-house Standard Operating Procedures and monitored by a veterinarian if required. […]
Plasma samples from mice were collected at 0.5, 1 and 2 h after treatment with compound #18 (GT-01803). […] The plate was read at excitation 355 nm and emission 460 nm in TECAN Infinite® M1000 Pro reader (Thermo Fisher Scientific, UK). […]

[1] = Precipitation observed in DSF dose response; format: physicochemical; settings: DSF buffer 100 mM Hepes, 20 mM MgCl2, pH 7, 1% DMSO
Method: (§1) The capacity of the compounds to stabilise IDUA was assessed by DSF. The thermal denaturation of purified human native enzyme was monitored in the presence of the extrinsic fluorescent probe SYPRO® Orange (Thermo Fisher Scientific, Waltham, MA, USA), which binds to hydrophobic parts of proteins that become exposed as the protein unfolds. […] Reactions containing 12.5 μL of 1.5 μM rhIDUA protein (purchased from R&D Systems) in 100 mM Hepes, 20 mM MgCl2, pH 7, to a final protein concentration of 0.75 μM with SYPRO Orange 10X, and 12.5 μL of the different compound solutions dissolved in 100% DMSO and diluted into the protein buffer to achieve final concentrations of 1% DMSO. The intensity of SYPRO Orange fluorescence after a systematic increase in temperature was monitored in the Roche LightCycler® 480 II device (Roche Diagnostics). The significance of the melting temperature (Tm) shifts was evaluated based on two criteria: absolute ΔTm shift > 0.5 °C (instrumental criterion) and absolute ΔTm standard deviation ≤ 0.2 (statistical criterion). The thermal shift dose response was performed at various increasing concentrations (from 0.04 to 90 μM) of compound #18 (GT-01803) with rhIDUA (obtained from the Institute of Biotechnology and Biomedicine at the Autonomous University of Barcelona (UAB), Bellaterra, Spain).

IDUA [2] = target: T2, IDUA (Homo sapiens, UniProt P35475); test: Differential scanning fluorimetry (DSF) thermal shift; format: binding; design: purchased R&D Systems
T2 sequence (P35475 28-653): T1 sequence (P35475 28-653)
Method: as §1

IDUA [3] = target: T2, IDUA; test: Denaturation prevention (isothermal denaturation) assay with SYPRO Orange; format: binding; design: purchased R&D Systems; settings: 30 μM compound, pH 7.0, 37 °C
Method: The capacity of the compounds to stabilize IDUA in neutral pH buffer was assessed using the denaturation prevention assay. Briefly, rhIDUA (obtained from the Institute of Biotechnology and Biomedicine in the UAB, Bellaterra, Spain) was combined to a final concentration of 1 μM with 5X SYPRO Orange and 30 μM of the corresponding compound in a final reaction volume of 25 μL in 100 mM Hepes, 20 mM MgCl2, pH 7 buffer, or 25 mM NaAc, 150 mM NaCl, pH 5.2. Reactions were incubated at 37 °C, and SYPRO Orange fluorescence intensity was monitored at the indicated time points using Glomax® Discover microplate reader (Promega, Madison, WI, USA). Two independent experiments in triplicate at one concentration (30μM) of compound #18 (GT-01803) were performed for denaturation prevention assays.

## CCN(CC(=O)Nc1c(Cl)cccc1Cl)Cc1nc2ccsc2c(=O)[nH]1 [GT-01803]
rhIDUA (Aldurazyme)
  IDUA enzymatic activity levels in plasma: increased
[1]
  concentration at which precipitation was observed: 100 µM
IDUA [2]; 30 μM, compounds #1 to #21
  rhIDUA stabilization by DSF (ΔTm): highest rhIDUA stabilization
IDUA [2]; dose response 0.04 to 90 μM, neutral pH
  increase of rhIDUA melting temperature: 4 ºC
IDUA [3]
  pH-induced denaturation of rhIDUA: slowed down
